The text below walks through data of patent US11648247B1, “Compositions and methods for the treatment of presbyopia” (Lenz Therapeutics, Inc., priority 2021, dated 2023).

In data set [1] the test system is presbyopic subjects. In words: Near and distance visual acuity after topical instillation (lines of improvement, onset, duration, efficacy index). Type of data set: in vivo, human. How it is done: As aceclidine is an […], the clinical effectiveness may vary with different ratios. For the present studies a nearly exact 50:50 ratio of stereoisomers was measured as best determined by polarimetry.
In brief, the score is calculated by multiplying the lines of improvement in near visual acuity by the number of hours the improvement lasts. For example, a score of: 5 is equal to +1 lines of improvement in near visual acuity for 5 hours; 10 is equal to +1.5 lines of improvement for 6.7 hours; 15 is equal to 2 lines of improvement for 7.5 hours; 20 is equal to 2.5 lines of improvement for 8 hours; 25 is equal to 3+ lines of improvement for 8.3 hours and 35 is equal to 3.75+ lines of improvement for 9 hours.
The subject instilled 2 drops of the above formulation in each eye as 1 single drop each eye and a second drop after 5 minutes.
2 subjects instilled 2 drops each of the above formulation in each eye about 5 minutes apart.
A 1.75% aceclidine in saline solution was formulated. One drop was instilled into each eye of a presbyopic subject. The visual acuity of the subject was tested both before and after instillation using a LogMAR chart.
Formulation AB#1 was instilled via 2-drops with a 5-minute interval in the eyes of a person. […] All near and distance vision with over-refraction was red-green adjusted to emmetropia. Near vision at 1 hour post instillation was measured. Further, duration to 20.40 vision was measured.

In data set [2] the test system is eye. In words: Comfort and tolerability after instillation (stinging, redness, ciliary spasm/brow ache, blur, dimming). Type of data set: in vivo, human. As to conditions: for night vision / dimming: pH 7.5. The method, then:
Ciliary spasms scores correspond to the following: 0=no discomfort; 0.5=slight sting; 1=noticeable squeeze/discomfort; 2=pain for less than 30 minutes; 3=pain for 1 hour or more; and 4=severe to intolerable pain.

Data set [3] can be described thus: Stability of aceclidine in storage (HPLC). Type of data set: physicochemical. As to conditions: for Stability of Aceclidine: same composition. The method, then:
20 samples of the above composition were divided evenly and stored at 25° C. and 4° C. Prior to storage, initial concentrations of aceclidine were measured using […] (“HPLC”). The amount of aceclidine in each solution was calculated by the area under the principal peak compared to a reference solution of aceclidine. Samples were then subject to storage for 3 months. Aceclidine measurements were taken at 1, 2 and 3 months.

For data set [4], the system named is eye. As to conditions: brimonidine 0.20% w/v (Alphagan®) twice daily; cited from earlier work.
In data set [5] the test system is pupil. As to conditions: cited from earlier work.
In data set [6] the test system is presbyopic subjects. The note with it: pilocarpine with oxymetazoline, US 2014/0113946; cited from earlier work.
[7] abbreviates: post instillation, 1.75% aceclidine in saline solution.

Some results are limits rather than exact numbers.

`CC(=O)OC1CN2CCC1CC2` (racemic) [aceclidine] had a near vision in data set [1] (FIG. 2, aceclidine in carrier: 5.5% HPβCD, 0.75% CMC, 0.25% NaCl, 0.01% BAK) of less than 20.20. The “LogMAR score at 1-meter distance” value in data set [1] (after instillation, 1.75% aceclidine in saline solution) was −0.12 LogMAR. Further, the “LogMAR score at 45 centimeters distance” value in data set [1] (after instillation, 1.75% aceclidine in saline solution, one drop each eye, 0.50 prior) is given as 0.22 LogMAR. In data set [1] (setting [7]), the “Noticeable degradation in reading distance acuity began” value is 4 h. In data set [1] (setting [7]), the “improved reading distance acuity maintained” value came to 3.5 h. Further, in data set [2] (1.35% w/v aceclidine, Example 2), the “Stinging, lasting” value fell in the range of 2 to 5 s. For the same molecule, the “Stability of Aceclidine” value was determined as 93% in data set [3] (4° C., 1 month); 92% in data set [3] (4° C., 2 months); 88% in data set [3] (4° C., 3 months); 100% in data set [3] (4° C., Initial); 92% in data set [3] (25° C., 1 month); 75% in data set [3] (25° C., 2 months). Also, the “Stability of Aceclidine” value in data set [3] (25° C., 3 months) was found to be 50%. In addition, the “Stability of Aceclidine (amount vs reference)” value in data set [3] (25° C., Initial, 1.50% aceclidine, 0.042% tropicamide, 5.5% polyoxyl 40 stearate, 2.5% mannitol, 3 mM citrate, pH 4.75) worked out at 100%.
For `Brc1c(NC2=NCCN2)ccc2nccnc12` [brimonidine], in data set [4], the rebound redness is reported as 25 % of patients. Besides, the “tachyphylaxis of pupil modulation” value in data set [5] (brimonidine 0.20% w/v topically for night vision, within four weeks of use) is given as ~100 % of treated subjects. Besides, in data set [5] (brimonidine, typically), the “duration of miotic effect” value was “about four hours”. In addition, the transiently induced miosis in data set [5] (brimonidine) is on record as 1.0-2.0 mm.
Turning to `CC[C@@H]1C(=O)OC[C@@H]1Cc1cncn1C` [pilocarpine], in data set [6], the “time until full effect became diminished” value is listed as “about four hours”.
With tropicamide, the “night vision / dimming” value in data set [2] (0.035% w/v tropicamide in 1.55% w/v aceclidine composition) is recorded as “slight dimming”; in data set [2] (0.042% w/v tropicamide in 1.55% w/v aceclidine composition), “normal indoor night vision”. Besides, the “effect on brow ache” value in data set [2] (tropicamide 0.01% w/v with aceclidine) was “slightly reduce brow ache”; in data set [2] (tropicamide 0.014% w/v with aceclidine) it was “reduce brow ache”; in data set [2] (tropicamide 0.021% w/v with aceclidine), “further reduce brow ache”; in data set [2] (tropicamide 0.030% w/v with aceclidine), “further reduce brow ache”; in data set [2] (tropicamide from 0.028% to 0.060% w/v with aceclidine), “completely eliminate brow ache”; in data set [2] (tropicamide from 0.04% to about 0.07% w/v with aceclidine), “completely eliminate brow ache”.
